Data set [1] concerns core clock gene mRNAs in liver. As to the kind of experiment: Single dose at peak or nadir of Cry1 expression, liver core clock gene mRNAs. Type of data set: in vivo, mouse. Particulars: single dose at ZT0 (peak) or ZT10 (nadir); liver 7.5 hours later. The protocol:
For compounds that interact directly with the core clock mechanism, the time of dosing may be critical for maximizing their effects. […] The former (ZTO) is coincident with the peak of Cry1 and Bmal1 protein in mouse liver and the latter (ZT10) corresponds to the approximate nadir of Cry1 and Bmal1. Liver tissue was taken 7.5 hours later for each, and the samples were examined for core clock gene mRNAs by RT-qPCR.

In data set [2] the test system is core clock genes (Per2, Bmal1, Cry1, Cry2) and gluconeogenic genes (Pckl, G6Pc) in liver. Nature of the data set: 24 hour gene expression studies, liver mRNA by RT-qPCR. It counts as in vivo, mouse. Particulars: 50 mg/kg PO BID. The source says: Male C57Bl/6J DIO mice were purchased at 17 weeks of age (The Jackson Laboratory, Sacramento, Calif.) and acclimated for a 2 week period before being used for the experiment. Overall group size was 15 per treatment, divided into 5 time-points to give a final group size of 3 mice.
In total, each mouse received 5 doses of compound over the course of the experiment. Mice were weighed and randomly assigned to each treatment based on weight the evening before the commencement of the study. Beginning on Day 3 at 3:00 PM, a group of animals from the vehicle and Compound 72-treated groups were euthanized using CO2 asphyxiation, 50 mg of liver, epididymal fat, and skeletal muscle, respectively, were excised and placed in tube containing 500 μl of RNALater. This procedure took place for the remainder of the time-point groups at their given harvest times. Plasma samples were also taken for each animal and frozen, to be used for later measurement of compound levels.
E.Z.N.A.® HP Total RNA Isolation Kits (R6812-01 and the protocol described in the Manual, Revised 2010) were utilized to prepare and isolate RNA from the liver samples. To prepare the RNA samples, 10-30 mg of sample was removed from RNA-Later and placed in a 1.5 ml microfuge tube. GTC lysis buffer (700 μl) was added to the tissue, which was homogenized with a rotor-stator homogenizer (e.g. Tissue-Tearor, Model #985370 BioSpec Products with 4.5 mm probe, Cat. #985370-04), and then centrifuged at full speed (≥13,000×g) for 5 minutes. The cleared supernatant was transferred by pipetting to a DNA Clearance Column Pre-inserted in a 2 mL Collection Tube. The assembled column was centrifuged at 13,000×g for 1 minute, and the flow-through was saved. An equal volume (700 μl) of 70% ethanol was added to the lysate and mixed. The sample was then applied to a HiBind RNA spin column placed into a 2 ml collection tube, which was centrifuged at 10,000×g for 60 seconds at room temperature. RNA Wash Buffer I (250 μl) was added by pipetting directly onto a new HiBind RNA column inserted in a 2 ml collection tube. The assembled column was centrifuged at 10,000×g for 60 seconds. The RNA column was placed into a new 2 ml collection tube. DNase I stock solution is pipetted (75 μl) directly onto the surface of the HiBind RNA resin in each column (Using DNAse Digestion with RNase Free DNase Set (E1091): for each HiBind RNA column, the DNase I stock solution was prepared as followed: E.Z.N.A.® DNase I Digestion Buffer 73.5 μl, RNase Free DNase I (20 Kunitz/μl) 1.5 μl=Total Volume 75 μl). The column with bound RNA was incubated at room temperature (25-30° C.) for 15 minutes. RNA Wash Buffer I (500 μl) was added to the column and placed on a bench top for 2 minutes. After centrifuging at 10,000×g for 60 seconds, discarding the flow-through, 500 μl of RNA Wash Buffer II was added and centrifuged at 10,000×g for 60 seconds. Another 500 μl of RNA Wash Buffer II was added and the column assembly was centrifuged at 10,000×g for 60 seconds. The column was centrifuged for 2 minutes at maximum speed to completely dry the HiBind matrix. The column was placed in a clean 1.5 ml microcentrifuge tube and 40-70 μl of molecular biology grade water is added. […]
RediPlate 96 RiboGreen RNA Quantification Kit (Invitrogen) RediPlate standard curve was prepared by transferring 20 l reconstituted RNA standard to a RediPlate well reconstituted in 180 l RediPlate TE buffer. […]
A general note: Quantitative PCR measures a nucleic acid by following its amplification.

For data set [3], the system named is db/db mouse model of type II diabetes. Nature of the data set: Single dose at peak or nadir of clock gene expression, OGTT in db/db mice. Type of data set: in vivo. An excerpt: Mice were split into two study arms, to be dosed at either the peak or nadir of Cry1 and Bmal1 gene expression. […] Mice dosed at ZT10 were fasted beginning at 8:30 am in the same manner.
Significance was accepted when p<0.05.

The nature of data set [4]: Pharmacokinetic analysis in SD rats. Particulars: plasma; rat; 50 mg/kg P.O. It counts as in vivo. The protocol:
Male SD rats (weighing 250-300 g, Charles River Laboratories) were used for the experiment with n=4 rats for each experimental group. […] Blood was collected at the following time points after administration: 15, 30, 60, 90 minutes, 3, 6, 12 and 24 hours. A pre-dose sample was also collected. Animals were cannulated by technical staff at Charles River, prior to delivery at Reset. Whole blood (0.3 ml) was collected from a cannula in the right common jugular vein at each time-point. The whole blood was transferred to an EDTA tube, and then centrifuged at 5400 rpm for 5 minutes at 4° C. The resultant plasma was frozen using dry ice and then stored at −80° C. until ready for assay. 0.9% Sodium Chloride (0.3 ml) was administered for fluid replenishment after each blood draw. 0.1 ml of Sodium Heparin (500 IU/ml) was used as a lock solution after the 12 hr time-point. Samples were assayed as described above.

This is an account of results in patent publication US10759777B2, “Carbazole-containing amides, carbamates, and ureas as cryptochrome modulators” (Synchronicity Pharma, Inc., priority 2014, dated 2020).

For `O=C1NCCN1CC(O)Cn1c2ccc(F)cc2c2cc(F)ccc21` (stereo not shown) [Compound 72, 1-(3-(3,6-difluoro-9H-carbazol-9-yl)-2-hydroxypropyl)imidazolidin-2-one], the “impact on core clock mRNAs, dosing at peak vs nadir of Cry1” value in data set [1] is recorded as “greater relative impact on the clock mRNAs at the peak compared to the nadir”. The “Cry2 mRNA in liver (daytime peak)” value in data set [2] (C57Bl/6J DIO and Balb/c mice) was “strongly attenuated”. The “Per2 mRNA in liver” value in data set [2] (C57Bl/6J DIO and Balb/c mice, over 24 hours, vs vehicle) is recorded as “suppressed”. Also, the “circadian pattern of mRNAs for gluconeogenic genes Pckl and G6Pc” value in data set [2] (C57Bl/6J DIO mice, relative to vehicle) is “substantially altered”. The “Bmal1 mRNAs in liver” value in data set [2] (both strains, at ZT8 and 32 hours after ZT0, vs vehicle) is “substantially increased”. For the same compound, the “Cry1 mRNA in liver” value in data set [2] (during its peak of expression in the dark period) is recorded as “suppressed”. Also, in data set [3] (50 mg/kg PO single dose at ZT0, db/db mice), the “effect on OGTT measurement, dosed at peak” value is reported as “apparent effect”. Also, the “effect on OGTT measurement, dosed at nadir” value in data set [3] (50 mg/kg PO single dose at ZT10, db/db mice) is on record as “no effect”. Also, in data set [3] (50 mg/kg PO single dose at peak (ZT0), vs vehicle), the “reduction in glucose excursion (AUC)” value is 14%. Also, the “% AUC extrapolated” value in data set [4] is listed as 3.3%.
